Experimental data published in patent US20190309272A1, “Genetically Modified Cell Lines Including a TP53 Modification and Methods of Use” (UNIVERSITY OF SOUTH CAROLINA, priority 2018, published 2019).
Structures can show the parent of a compound that is named as a salt. Where two headings read alike, the source gives them in different places.

How the values were obtained:
Assay type in all cases: cell-based, Human
MCF7 WT Parental pool = test: Drug screening, resazurin, MCF7 wild type parental pool
MCF7 TP53 KO 3.4 pool = test: Drug screening, resazurin, TP53 KO 3.4 pool
MCF7 TP53 KO 5.6 pool = test: Drug screening, resazurin, TP53 KO 5.6 pool
[1] = ten-day drug treatment, 156.25 nM to 10 μM, resazurin fluorescence

SMILES | MCF7 WT Parental pool (AUC) (MCF7 WT Parental pool; [1]) | TP53 KO 3.4 pool (AUC) (MCF7 TP53 KO 3.4 pool; [1]) | TP53 KO 5.6 pool (AUC) (MCF7 TP53 KO 5.6 pool; [1]) | MCF7 WT Parental pool (AUC) (MCF7 WT Parental pool) | TP53 KO 3.4 pool (AUC) (MCF7 TP53 KO 3.4 pool) | TP53 KO 5.6 pool (AUC) (MCF7 TP53 KO 5.6 pool)
C[C@]12CC[C@@H]3c4ccc(OC(=O)N(CCCl)CCCl)cc4CC[C@H]3[C@@H]1CC[C@@H]2OP(=O)(O)O [Estramustine Phosphate Sodium] | 9.864 | 9.491 | 9.348 |  |  | 
COc1cc([C@@H]2c3cc4c(cc3[C@@H](O[C@@H]3O[C@@H]5CO[C@@H](C)O[C@H]5[C@H](O)[C@H]3O)[C@H]3COC(=O)[C@H]23)OCO4)cc(OC)c1O [Etoposide] | 2.93 | 2.818 | 3.06 |  |  | 
CO[C@H]1C[C@@H]2CC[C@@H](C)[C@@](O)(O2)C(=O)C(=O)N2CCCC[C@H]2C(=O)O[C@H]([C@H](C)C[C@@H]2CC[C@@H](OCCO)[C@H](OC)C2)CC(=O)[C@H](C)/C=C(\C)[C@@H](O)[C@@H](OC)C(=O)[C@H](C)C[C@H](C)/C=C/C=C/C=C/1C [Everolimus] | 4.699 | 2.251 | 3.834 |  |  | 
O=c1[nH]c(=O)n([C@H]2C[C@H](O)[C@@H](CO)O2)cc1F [Floxuridine] | 2.391 | 1.85 | 1.997 |  |  | 
Nc1nc(F)nc2c1ncn2[C@@H]1O[C@H](COP(=O)(O)O)[C@@H](O)[C@@H]1O [FludarabinePhosphate] | 8.551 | 8.135 | 7.936 |  |  | 
C[C@]12CC[C@@H]3c4ccc(O)cc4C[C@@H](CCCCCCCCC[S+]([O-])CCCC(F)(F)C(F)(F)F)[C@H]3[C@@H]1CC[C@@H]2O (stereo partly drawn) [Fulvestrant] | 4.6 | 3.797 | 4.145 |  |  | 
COc1cc2ncnc(Nc3ccc(F)c(Cl)c3)c2cc1OCCCN1CCOCC1 [Gefintinib] | 8.974 | 7.676 | 8.242 |  |  | 
Nc1ccn([C@@H]2O[C@H](CO)[C@@H](O)C2(F)F)c(=O)n1 [Gemcitabine Hydrochloride] | 2.888 | 1.464 | 1.827 |  |  | 
NC(=O)NO [Hydroxyurea] | 9.246 | 8.069 | 8.455 |  |  | 
C=CC(=O)N1CCC[C@@H](n2nc(-c3ccc(Oc4ccccc4)cc3)c3c(N)ncnc32)C1 [Ibrutinib] | 6.35 | 5.166 | 5.711 |  |  | 
CC[C@H](Nc1ncnc2[nH]cnc12)c1nc2cccc(F)c2c(=O)n1-c1ccccc1 [Idelalisib] | 7.566 | 7.039 | 7.03 |  |  | 
CC(C)Cn1cnc2c(N)nc3ccccc3c21 [Imiquimod] | 9.496 | 9.359 | 9.449 |  |  | 
C/C(=C\c1csc(C)n1)[C@@H]1C[C@@H]2O[C@]2(C)CCC[C@H](C)[C@H](O)[C@@H](C)C(=O)C(C)(C)[C@@H](O)CC(=O)N1 [Ixabepilone] | 1.397 | 1.543 | 1.473 |  |  | 
CC(C)C[C@H](NC(=O)CNC(=O)c1cc(Cl)ccc1Cl)B(O)O [Ixazomib] | 0.719 | 0.7086 | 0.8766 |  |  | 
CS(=O)(=O)CCNCc1ccc(-c2ccc3ncnc(Nc4ccc(OCc5cccc(F)c5)c(Cl)c4)c3c2)o1 [Laptinib] | 5.364 | 5.619 | 5.857 |  |  | 
Nc1cccc2c1CN(C1CCC(=O)NC1=O)C2=O (stereo not drawn) [Lenalidomide] | 8.724 | 8.782 | 8.801 |  |  | 
O=NN(CCCl)C(=O)NC1CCCCC1 [Lomustine] | 9.62 | 9.629 | 9.491 |  |  | 
CC(=O)O[C@]1(C(C)=O)CC[C@H]2[C@@H]3C=C(C)C4=CC(=O)CC[C@]4(C)[C@H]3CC[C@@]21C [Megestrol Acetate] | 9.824 | 9.221 | 9.555 |  |  | 
N[C@@H](Cc1ccc(N(CCCl)CCCl)cc1)C(=O)O [Melphalan Hydrochloride] | 5.766 | 6.158 | 5.95 |  |  | 
S=c1nc[nH]c2nc[nH]c12 [Mercaptopurine] | 6.103 | 5.941 | 5.636 |  |  | 
COc1c2occc2cc2ccc(=O)oc12 [Methoxsalen] | 8.476 | 10.56 | 10.48 |  |  | 
CO[C@@]12[C@H](COC(N)=O)C3=C(C(=O)C(C)=C(N)C3=O)N1C[C@@H]1N[C@@H]12 [Mitomycin] | 1.122 | 1.003 | 0.912 |  |  | 

SMILES | MCF7 WT Parental pool (AUC) (MCF7 WT Parental pool; [1]) | TP53 KO 3.4 pool (AUC) (MCF7 TP53 KO 3.4 pool; [1]) | TP53 KO 5.6 pool (AUC) (MCF7 TP53 KO 5.6 pool; [1]) | MCF7 WT Parental pool (AUC) (MCF7 WT Parental pool) | TP53 KO 3.4 pool (AUC) (MCF7 TP53 KO 3.4 pool) | TP53 KO 5.6 pool (AUC) (MCF7 TP53 KO 5.6 pool)
Clc1ccc(C(c2ccccc2Cl)C(Cl)Cl)cc1 (stereo not drawn) [Mitotane] | 5.932 | 11.01 | 10.17 |  |  | 
COc1nc(N)nc2c1ncn2[C@@H]1O[C@H](CO)[C@@H](O)[C@@H]1O [Nelarabine] | 8.659 | 11.04 | 10.08 |  |  | 
Cc1cn(-c2cc(NC(=O)c3ccc(C)c(Nc4nccc(-c5cccnc5)n4)c3)cc(C(F)(F)F)c2)cn1 [Nilotinib] | 5.834 | 6.967 | 4.891 |  |  | 
O=C(c1cc(Cc2n[nH]c(=O)c3ccccc23)ccc1F)N1CCN(C(=O)C2CC2)CC1 [Olaparib] | 5.48 | 8.58 | 7.433 |  |  | 
COC(=O)C[C@](O)(CCCC(C)(C)O)C(=O)O[C@@H]1C(OC)=C[C@]23CCCN2CCc2cc4c(cc2[C@H]13)OCO4 [Omacetaxine Mepesuccinate] | 0.7749 | 0.7692 | 0.7717 |  |  | 
C=CC(=O)Nc1cc(Nc2nccc(-c3cn(C)c4ccccc34)n2)c(OC)cc1N(C)CCN(C)C [Osimertinib] | 4.149 | 4.056 | 4.044 |  |  | 
CC(=O)O[C@H]1C(=O)[C@@]2(C)[C@H]([C@H](OC(=O)c3ccccc3)[C@]3(O)C[C@H](OC(=O)[C@H](O)[C@@H](NC(=O)c4ccccc4)c4ccccc4)C(C)=C1C3(C)C)[C@]1(OC(C)=O)CO[C@@H]1C[C@@H]2O [Paclitaxel] | 1.453 | 1.453 | 1.432 |  |  | 
Cc1[nH]c2ccccc2c1CCNCc1ccc(/C=C/C(=O)NO)cc1 [Panobinostat] | 0.6418 | 0.5862 | 0.5971 |  |  | 
Cc1ccc(Nc2nccc(N(C)c3ccc4c(C)n(C)nc4c3)n2)cc1S(N)(=O)=O [Pazopanib Hydrochloride] | 6.767 | 6.259 | 6.349 |  |  | 
Nc1nc2[nH]cc(CCc3ccc(C(=O)N[C@@H](CCC(=O)O)C(=O)O)cc3)c2c(=O)[nH]1 [Pemetrexed Disodium Salt Heptahydrate] | 2.501 | 2.438 | 2.852 |  |  | 
O=C(CCBr)N1CCN(C(=O)CCBr)CC1 [Pipobroman] | 8.767 | 8.997 | 7.66 |  |  | 
c1cc(CN2CCCNCCNCCCNCC2)ccc1CN1CCCNCCNCCCNCC1 [Plerixafor] | 9 | 8.893 | 8.524 |  |  | 
Nc1cccc2c1C(=O)N(C1CCC(=O)NC1=O)C2=O (stereo not drawn) [Pomalidomide] | 10.08 | 9.902 | 10.13 |  |  | 
Cc1ccc(C(=O)Nc2ccc(CN3CCN(C)CC3)c(C(F)(F)F)c2)cc1C#Cc1cnc2cccnn12 [Ponatinib] |  |  |  | 3.312 | 2.944 | 3.632
C#CCC(Cc1cnc2nc(N)nc(N)c2n1)c1ccc(C(=O)N[C@@H](CCC(=O)O)C(=O)O)cc1 (stereo partly drawn) [Pralatrexate] | 2.822 | 2.774 | 2.86 |  |  | 
CNNCc1ccc(C(=O)NC(C)C)cc1 [Procarbazine Hydrochloride] | 8.119 | 10.04 | 10.7 |  |  | 
O=C(c1ccc(OCCN2CCCCC2)cc1)c1c(-c2ccc(O)cc2)sc2cc(O)ccc12 [Raloxifene] | 5.361 | 6.017 | 6.562 |  |  | 
CNC(=O)c1cc(Oc2ccc(NC(=O)Nc3ccc(Cl)c(C(F)(F)F)c3)c(F)c2)ccn1 [Regorafenib] | 3.995 | 5.541 | 5.25 |  |  | 
C/C=C1\NC(=O)[C@H]2CSSCC/C=C/[C@H](CC(=O)N[C@H](C(C)C)C(=O)N2)OC(=O)[C@H](C(C)C)NC1=O [Romidepsin] |  |  |  | 0.5862 | 0.6551 | 0.5264
CN1CCN(C(=O)c2ccc3cc(CCNc4ncnc5ccc(C#N)cc45)ccc3c2)CC1 [SenexinB] | 5.203 | 6.869 | 6.954 |  |  | 
CO[C@H]1C[C@@H]2CC[C@@H](C)[C@@](O)(O2)C(=O)C(=O)N2CCCC[C@H]2C(=O)O[C@H]([C@H](C)C[C@@H]2CC[C@@H](O)[C@H](OC)C2)CC(=O)[C@H](C)/C=C(\C)[C@@H](O)[C@@H](OC)C(=O)[C@H](C)C[C@H](C)/C=C/C=C/C=C/1C [Sirolimus] | 2.534 | 2.623 | 3.106 |  |  | 
